# Source: EPA's ToxValDB 9.5 (doi:10.2903/j.efsa.2016.4452)
# Assays:
# Colinus virginianus = conditions: acute, oral, diet, mortality
# Canidae = conditions: chronic; duration: 1 years; oral; Dog Other; organ weight
# Oryctolagus sp. = conditions: reproduction developmental; no effects
# Lepomis macrochirus = conditions: acute; duration: 96 hours; mortality
# Folsomia candida = conditions: chronic/long-term; duration: 28 days
# Pimephales promelas = conditions: chronic/long-term; duration: 28 days; reproduction
# Bibionidae = conditions: chronic/long-term; duration: 28 days; reproduction
# Anas platyrhynchos = conditions: reproductive; duration: 20 weeks; oral; feed; M
# Daphnia magna = conditions: chronic/long-term; duration: 21 days; reproduction
# Apis mellifera = conditions: acute, mortality
# Aphidius rhopalosiphi = assay: LR50; higher = less toxic; conditions: not reported; mortality
Compound,"LD50 (Rattus norvegicus; acute, oral, mortality) [mg/kg-day]","NOAEL (Rattus norvegicus; reproduction developmental, no effects) [mg/kg-day]",LD50 (Colinus virginianus; duration: 8 days) [mg/kg-day],LD50 (Colinus virginianus; duration: 14 days) [mg/kg-day],"LC50 (Tagia sp.; acute, duration: 14 days, mortality) [mg/kg]","NOEC (Tagia sp.; chronic/long-term, duration: 56 days) [mg/kg]",LOAEL (Canidae) [mg/kg-day],NOAEL (Oryctolagus sp.) [mg/kg-day],LC50 (Lepomis macrochirus) [µg/mL],NOEC (Folsomia candida) [mg/kg],NOEC (Pimephales promelas) [mg/L],NOEC (Bibionidae) [mg/kg],NOAEL (Anas platyrhynchos) [mg/kg-day],NOEC (Daphnia magna) [mg/L],LD50 (Apis mellifera; dermal) [µg/piece],"LD50 (Apis mellifera; oral, unspecified) [µg/piece]",LR50 (Aphidius rhopalosiphi) [g/ha]
CC(NC(=O)c1cc(Cl)cc(Br)c1NC(=O)c1cc(Br)nn1-c1ncccc1Cl)C1CC1 (stereo not drawn) [Cyclaniliprole],> 2000,1000,> 1000,> 2000,> 500,500,1.29,1000,> 0.15,1.25,0.2,0.061,2.7,0.015,0.486,0.194,0.507
O=c1[nH]c(-c2cc(Br)nn2-c2ncccc2Cl)nc2c(Br)cc(Cl)cc12 [Cyclaniliprole metabolite (NSY-28)],–,–,–,–,–,–,1.29,–,–,–,–,–,–,–,–,–,–
